Results taken from patent US6124323A, “4-substituted piperidine analogs and their use as subtype selective NMDA receptor antagonists” (Warner-Lambert Company, priority 1998, dated 2000).
Where a name gives a salt, the structure may show the parent alone.

Legend:
[1] = target: T1, NMDA receptor subunits 1A/2B (Rattus norvegicus, UniProt P35439+Q00960); test: Electrophysiological assay at NMDA receptor subunits expressed in Xenopus oocytes, 1A/2B; type: cell-based; settings: Xenopus oocytes; glutamate 100 μm and glycine 1-100 μm; read-out: Subunits IC50, 1A/2B
T1 construct: expressed in transfected cells; host or cells: Xenopus laevis oocytes (cRNA injection; clones from Dr. P. H. Seeburg)
T1 sequence (Q00960 27-1482, other chains not shown): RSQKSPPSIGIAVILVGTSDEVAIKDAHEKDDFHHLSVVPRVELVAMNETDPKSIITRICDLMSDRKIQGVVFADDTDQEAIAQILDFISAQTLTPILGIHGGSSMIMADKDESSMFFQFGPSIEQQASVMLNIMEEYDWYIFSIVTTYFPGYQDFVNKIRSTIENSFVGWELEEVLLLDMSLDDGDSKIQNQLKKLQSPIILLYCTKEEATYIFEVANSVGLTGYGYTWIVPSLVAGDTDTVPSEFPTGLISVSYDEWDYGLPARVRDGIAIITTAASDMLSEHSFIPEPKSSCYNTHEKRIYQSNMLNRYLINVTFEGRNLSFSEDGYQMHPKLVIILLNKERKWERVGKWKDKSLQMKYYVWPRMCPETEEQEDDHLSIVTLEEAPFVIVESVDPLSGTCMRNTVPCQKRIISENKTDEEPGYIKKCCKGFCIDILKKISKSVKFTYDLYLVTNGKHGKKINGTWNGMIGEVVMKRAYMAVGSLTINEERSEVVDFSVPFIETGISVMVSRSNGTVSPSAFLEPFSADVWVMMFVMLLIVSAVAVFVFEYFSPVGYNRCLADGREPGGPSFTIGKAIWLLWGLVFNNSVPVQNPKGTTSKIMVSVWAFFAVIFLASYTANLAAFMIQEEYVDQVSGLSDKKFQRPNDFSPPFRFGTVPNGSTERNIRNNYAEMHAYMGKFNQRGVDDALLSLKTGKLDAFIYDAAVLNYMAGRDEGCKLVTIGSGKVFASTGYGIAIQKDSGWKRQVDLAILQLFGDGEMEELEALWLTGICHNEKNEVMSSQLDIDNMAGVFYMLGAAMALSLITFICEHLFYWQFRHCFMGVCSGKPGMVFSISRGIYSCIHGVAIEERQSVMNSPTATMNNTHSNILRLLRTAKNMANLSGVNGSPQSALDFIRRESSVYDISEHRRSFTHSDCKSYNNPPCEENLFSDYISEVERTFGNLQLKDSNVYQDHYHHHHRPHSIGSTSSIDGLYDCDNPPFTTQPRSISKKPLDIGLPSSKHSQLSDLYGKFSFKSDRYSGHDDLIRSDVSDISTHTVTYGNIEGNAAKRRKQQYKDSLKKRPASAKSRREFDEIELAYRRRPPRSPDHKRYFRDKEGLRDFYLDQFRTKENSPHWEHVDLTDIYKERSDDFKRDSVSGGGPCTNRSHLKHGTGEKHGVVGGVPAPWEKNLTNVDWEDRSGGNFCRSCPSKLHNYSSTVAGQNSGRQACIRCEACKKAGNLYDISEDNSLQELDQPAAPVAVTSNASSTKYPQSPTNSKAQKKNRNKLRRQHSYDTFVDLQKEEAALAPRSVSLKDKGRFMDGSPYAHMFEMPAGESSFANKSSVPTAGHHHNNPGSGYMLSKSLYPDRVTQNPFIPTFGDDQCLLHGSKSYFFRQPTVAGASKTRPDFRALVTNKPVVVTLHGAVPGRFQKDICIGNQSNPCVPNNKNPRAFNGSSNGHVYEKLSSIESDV
Method in brief: (§1)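 Two-electrode voltage clamp of Xenopus oocytes injected with rat NR1A plus NR2A, 2B or 2C cRNA (1:1), recorded 3–21 days post-injection in Ringer's, pH 7.4. Currents evoked by glutamate (100 μm) with glycine (1–100 μm); antagonist applied by bath perfusion at rising concentrations, IC50 from logistic fit or linear regression for incomplete curves.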

[2] = test system: Maximal Electroshock-induced Seizures; test: Maximal electroshock-induced seizures (MES); type: in vivo; settings: Mus musculus; mice; 50 mA, 60 pulses/sec, 1 sec
From the text: Seizures were induced by application of current (50 mA, 60 pulses/sec, 0.8 sec pulse width, 1 sec duration, d.c.) through saline-coated corneal electrodes using a Ugo Basile ECT device (Model 7801). […] A tonic seizure was defined as a hindlimb extension in excess of 90 degrees from the plane of the body.

[3] = target: T2, NMDA receptor subunits 1A/2A (Rattus norvegicus, UniProt P35439+Q00959); test: Electrophysiological assay at NMDA receptor subunits expressed in Xenopus oocytes, 1A/2A; type: cell-based; settings: glutamate 100 μm and glycine 1-100 μm
T2 construct: expressed in transfected cells; host or cells: Xenopus laevis oocytes (cRNA injection; clones from Dr. P. H. Seeburg)
T2 sequence (Q00959 20-1464 limits assumed, other chains not shown): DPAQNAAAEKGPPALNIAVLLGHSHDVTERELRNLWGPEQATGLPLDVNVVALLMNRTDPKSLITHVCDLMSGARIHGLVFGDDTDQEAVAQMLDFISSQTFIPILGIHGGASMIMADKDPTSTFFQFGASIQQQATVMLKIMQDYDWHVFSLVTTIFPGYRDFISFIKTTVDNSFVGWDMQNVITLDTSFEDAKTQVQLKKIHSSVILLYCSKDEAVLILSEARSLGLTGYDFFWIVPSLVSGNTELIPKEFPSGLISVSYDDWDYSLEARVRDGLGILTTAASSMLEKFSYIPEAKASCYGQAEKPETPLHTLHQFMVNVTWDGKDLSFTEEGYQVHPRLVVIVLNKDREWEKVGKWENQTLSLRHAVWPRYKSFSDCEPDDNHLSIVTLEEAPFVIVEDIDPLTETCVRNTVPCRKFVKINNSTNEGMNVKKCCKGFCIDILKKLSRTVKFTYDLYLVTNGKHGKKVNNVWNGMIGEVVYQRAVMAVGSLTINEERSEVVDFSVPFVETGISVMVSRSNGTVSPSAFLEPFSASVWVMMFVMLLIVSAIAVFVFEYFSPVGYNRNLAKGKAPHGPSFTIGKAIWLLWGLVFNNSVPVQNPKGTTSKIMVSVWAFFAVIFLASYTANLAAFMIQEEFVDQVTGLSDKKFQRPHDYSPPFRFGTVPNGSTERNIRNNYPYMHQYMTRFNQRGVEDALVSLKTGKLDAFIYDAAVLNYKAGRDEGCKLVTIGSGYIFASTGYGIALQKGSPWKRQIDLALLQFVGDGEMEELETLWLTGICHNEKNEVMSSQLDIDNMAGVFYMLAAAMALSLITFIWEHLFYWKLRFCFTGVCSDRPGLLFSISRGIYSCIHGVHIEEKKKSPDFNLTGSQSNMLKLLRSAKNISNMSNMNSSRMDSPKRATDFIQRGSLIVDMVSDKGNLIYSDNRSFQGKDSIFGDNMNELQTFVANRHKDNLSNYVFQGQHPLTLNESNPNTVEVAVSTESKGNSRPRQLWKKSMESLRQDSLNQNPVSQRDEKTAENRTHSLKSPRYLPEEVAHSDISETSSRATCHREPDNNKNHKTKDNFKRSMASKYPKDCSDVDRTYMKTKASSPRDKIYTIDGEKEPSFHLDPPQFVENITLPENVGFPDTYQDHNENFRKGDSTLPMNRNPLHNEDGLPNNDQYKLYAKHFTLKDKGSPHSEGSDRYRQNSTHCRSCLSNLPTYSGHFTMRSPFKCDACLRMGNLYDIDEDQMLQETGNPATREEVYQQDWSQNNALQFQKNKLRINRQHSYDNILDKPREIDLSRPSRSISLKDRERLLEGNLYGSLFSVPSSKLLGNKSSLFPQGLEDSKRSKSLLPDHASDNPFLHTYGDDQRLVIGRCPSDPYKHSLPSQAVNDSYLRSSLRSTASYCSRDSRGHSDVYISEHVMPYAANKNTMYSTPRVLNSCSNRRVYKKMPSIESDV
Method in brief: as §1

[4] = target: T3, NMDA receptor subunits 1A/2C (Rattus norvegicus, UniProt P35439+Q00961); test: Electrophysiological assay at NMDA receptor subunits expressed in Xenopus oocytes, 1A/2C; type: cell-based; settings: Xenopus oocytes; glutamate 100 μm and glycine 1-100 μm; read-out: Subunits IC50, 1A/2C
T3 construct: expressed in transfected cells; host or cells: Xenopus laevis oocytes (cRNA injection; clones from Dr. P. H. Seeburg)
T3 sequence (Q00961 20-1237, other chains not shown): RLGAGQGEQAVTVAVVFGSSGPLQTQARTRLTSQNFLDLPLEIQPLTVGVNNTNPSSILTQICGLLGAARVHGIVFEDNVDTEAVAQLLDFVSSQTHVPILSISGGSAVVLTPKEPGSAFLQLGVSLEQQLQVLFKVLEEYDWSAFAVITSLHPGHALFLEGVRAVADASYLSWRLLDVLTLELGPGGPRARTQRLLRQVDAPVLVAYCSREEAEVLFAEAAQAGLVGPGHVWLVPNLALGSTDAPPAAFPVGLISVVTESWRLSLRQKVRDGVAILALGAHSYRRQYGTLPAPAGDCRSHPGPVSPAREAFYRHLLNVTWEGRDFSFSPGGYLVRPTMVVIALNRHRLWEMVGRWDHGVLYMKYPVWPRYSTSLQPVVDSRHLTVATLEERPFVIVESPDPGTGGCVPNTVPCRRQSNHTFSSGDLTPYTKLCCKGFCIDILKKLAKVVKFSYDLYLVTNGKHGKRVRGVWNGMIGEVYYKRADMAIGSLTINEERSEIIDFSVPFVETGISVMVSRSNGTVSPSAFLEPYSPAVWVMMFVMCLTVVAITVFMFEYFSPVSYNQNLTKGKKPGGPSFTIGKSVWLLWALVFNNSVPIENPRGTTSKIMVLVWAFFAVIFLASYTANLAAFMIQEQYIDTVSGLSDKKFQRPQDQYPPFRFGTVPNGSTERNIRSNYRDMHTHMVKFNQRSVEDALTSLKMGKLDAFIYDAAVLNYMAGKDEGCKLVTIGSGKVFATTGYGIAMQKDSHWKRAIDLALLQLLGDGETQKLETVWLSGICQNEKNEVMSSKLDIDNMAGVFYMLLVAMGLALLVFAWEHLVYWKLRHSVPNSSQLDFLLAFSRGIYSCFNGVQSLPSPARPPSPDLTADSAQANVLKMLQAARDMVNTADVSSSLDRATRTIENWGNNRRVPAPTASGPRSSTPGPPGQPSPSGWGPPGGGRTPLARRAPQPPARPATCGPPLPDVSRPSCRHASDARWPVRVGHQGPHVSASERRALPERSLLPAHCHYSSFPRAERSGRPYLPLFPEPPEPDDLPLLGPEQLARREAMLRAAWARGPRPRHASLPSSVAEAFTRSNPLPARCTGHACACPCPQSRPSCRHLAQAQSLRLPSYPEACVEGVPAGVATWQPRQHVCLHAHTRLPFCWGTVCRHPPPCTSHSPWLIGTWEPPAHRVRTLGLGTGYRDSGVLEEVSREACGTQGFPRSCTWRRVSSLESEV
Method in brief: as §1

Compound	IC50 [1] [µM]	IC50 [3] [µM]	IC50 [4] [µM]	ED50 [2] [mg/kg]
OC1(Cc2ccccc2)CCN(CCOc2ccccc2)CC1 [Ex. 47, 4-Benzyl-4-hydroxy-1-(2-phenoxyethyl)piperidine hydrochloride]	3	85	> 100	3.2
O=c1[nH]c2cccc(OCCN3CCC(Cc4ccccc4)CC3)c2[nH]1 [Ex. 55, 4-Benzyl-1-[2-(2-oxobenzimidazol-4-oxy)ethyl]piperidine]	0.11	50	> 100	6
O=c1[nH]c2ccc(OCCN3CCC(Cc4ccccc4)CC3)cc2[nH]c1=O [Ex. 58, 4-Benzyl-1-[2-(2,3-dioxoquinoxalin-6-oxy)ethyl]piperidine]	0.1	25	> 100	5.1
O=[N+]([O-])c1ccccc1OCCN1CCC(Cc2ccc(Cl)cc2)CC1 [Ex. 73, 4-(4-Chlorobenzyl)-1-[2-(2-nitrophenoxy)ethyl]piperidine]	8	30	100	8
Nc1ccccc1OCCN1CCC(Cc2ccc(Cl)cc2)CC1 [Ex. 74, 4-(4-Chlorobenzyl)-1-[2-(2-aminophenoxy)ethyl]piperidine]	3	60	> 100	3.5
O=c1[nH]c2cccc(OCCN3CCC(Cc4ccc(Cl)cc4)CC3)c2[nH]1 [Ex. 77, 4-(4-Chlorobenzyl)-1-[2-(2-oxobenzimidazol-4-oxy)ethyl]piperidine]	0.11	50	> 100	6
Fc1ccc(OCCN2CCC(Cc3ccccc3)CC2)cc1 [Ex. 103, 4-Benzyl-1-(2-(4-fluorophenoxy)ethyl)piperidine hydrochloride]	1	95	> 300	3
Oc1ccc(CC2CCN(CCOc3ccc(F)cc3)CC2)cc1 [Ex. 104]	0.2	50	> 300	3
Oc1ccc(OCCN2CCC(Cc3cccc(F)c3)CC2)cc1 [Ex. 112, 1-[2-(4-Hydroxyphenoxy)ethyl]-4-(3-fluorobenzylpiperidine hydrochloride]	0.08	30	280	4.5
Cc1ccc(CC2CCN(CCOc3ccc(F)cc3)CC2)cc1 [Ex. 116, 1-(2-(4-Fluorophenoxy)ethyl)-4-(4-methylbenzyl)piperidine hydrochloride]	4.5	70	150	3

Now those with a lower IC50 [1], led by results:

IC50 [1] [µM]	IC50 [3] [µM]	IC50 [4] [µM]	Compound	ED50 [2] [mg/kg]
0.024	75	> 100	O=c1[nH]c2ccc(OCCN3CCC(Cc4ccccc4)CC3)cc2[nH]1 [Ex. 59, 4-Benzyl-1-[2-(2-oxobenzimidazol-5-oxy)ethyl]piperidine]	1
0.03	> 300	> 300	Cl.Oc1ccc(OCCN2CCC(Cc3ccccc3)CC2)cc1 [Ex. 99, 1-[2-(4-hydroxyphenoxy)ethyl]-4-benzylpiperidine hydrochloride]	2
0.05	55	240	Oc1ccc(OCCN2CCC(Cc3ccc(Cl)cc3)CC2)cc1 [Ex. 101, hydrochloride]	3
0.02	60	290	Oc1ccc(OCCN2CCC(Cc3ccc(F)cc3)CC2)cc1 [Ex. 102, 1-[2-(4-Hydroxyphenoxy)ethyl]-4-(4-fluorobenzyl)piperidine hydrochloride]	3
0.03	75	220	Cc1ccc(CC2CCN(CCOc3ccc(O)cc3)CC2)cc1 [Ex. 115, 1-[2-(4-Hydroxyphenoxy)ethyl]-4-(4-methylbenzyl)piperidine hydrochloride]	0.7
0.02	55	> 300	CCc1ccc(CC2CCN(CCOc3ccc(O)cc3)CC2)cc1 [Ex. 120, hydrochloride]	2
